{"source": "patent US9932589B2", "about": "“EML4-ALK fusion gene” (Astellas Pharma Inc., priority 2006, dated 2018)", "key": {"U-87MG cells": {"tested_on": "U-87MG cells", "experiment": "anchorage independent growth on spheroid plate, U-87MG cells expressing full length ALK", "type": "cell-based, human", "conditions": "siRNA transfected, 3 days; for U-87MG cell growth inhibition rate: spheroid plate", "method": "(§1) The v1 expressing 3T3 cells (Example 6(1)) and one of the human glioma cells expressing the full length ALK polypeptide and not expressing EML4-ALK fusion polynucleotide endogenously, U-87 MG cells, were seeded to a 96 well spheroid plate (Sumilon Celltight Spheroid 96U, Sumitomo Bakelite Inc.) at 3000 cells per well in a medium containing 10% fetal bovine serum (DMEM for v1 expressing 3T3 cells and RPMI 1640 for U-87MG). […] At the same time, cells were counted before the addition of drugs (Day 0). Then, cells were cultured under 5% CO2, at 37° C. for 3 days, mixed with a reagent for measuring cell number (CellTiter-Glo™ Luminescent Cell Viability Assay; Promega Inc.) stirred for 20 minutes, and the measurements (day 3) were carried out using a luminometer (ML3000 microtiter plate luminometer; Dynatech Laboratories Inc.)."}, "[1]": {"tested_on": "EML4-ALK fusion polynucleotide v1", "experiment": "siRNA inhibition of mRNA expression of EML4-ALK fusion polynucleotide v1 in v1 expressing 3T3 cells, quantitative PCR", "type": "cell-based, mouse", "conditions": "siRNA 20 nM, 72 hours; for Inhibition rate for EML4-ALK gene expression (v1 expressing 3T3 cells): mRNA", "method": "(§2) The v1 expressing 3T3 cells and U-87MG cells were seeded to 12 well plates (IWAKI; Asahi techno glass corp.) at 50,000 cells and 150,000 cells, respectively. Four hours later, using a transfection reagent (Lipofectamine RNAiMax; Invitrogen Inc.), siRNA-1 to siRNA-9 were prepared to a final concentration of 20 nM and transfected to cells according to the attached instruction. In addition, as a control no siRNA transfection samples were prepared. After 72 hours, the medium was removed, and total RNA was extracted using an RNA purification kit (RNeasy Mini Kit; QIAGEN Inc.) according to the attached instruction, and cDNA was prepared using a cDNA synthesizing kit (ThermoScript RT-PCR System; Invitrogen Inc.) according to the attached instruction.\n(§3) The amount of expressed mRNA of the EML4-ALK fusion polynucleotide v1 in v1 expressing 3T3 cells and the amount of mRNA of the ALK gene in U-87MG cells were quantitated using a quantitative PCR reagent (Power SYBR Green PCR Master Mix; Applied Biosystems Inc.) The PCR reaction was carried out as follows: after 10 minutes incubation at 95° C., 45 cycles of 95° C. for 15 seconds and 60° C. for 60 seconds, and then one cycle of 95° C. for 15 seconds, 60° C. for 15 seconds and 95° C. for 15 seconds to complete the reaction. In addition, to calibrate the amount of expression, the amount of expression of the mouse cyclophilin B gene and the human GAPDH gene was similarly quantitated for v1 expressing 3T3 cells and U-87MG cells, respectively. Analyses were carried out using a sequence detector (ABI PRISM 7900 Sequence Detection System; Perkin-Elmer Applied Biosystems Inc.).\n(§4) Oligo nucleotides consisting of the base sequences represented by SEQ ID NO: 44 and 48, SEQ ID NO: 50 and 56, SEQ ID NO: 44 and 48 and SEQ ID NO: 12 and 13 were used as the primer sets that specifically recognize the EML4-ALK fusion polynucleotide v1, the mouse cyclophilin B gene, the human ALK gene and the human GAPDH gene. Also, to obtain a standard curve to calculate the amount of respective mRNA, PCR was performed using human genomic DNA (Clontech) as a template for EML4-ALK fusion polynucleotide v1, human ALK and human GAPDH, and using mouse genomic DNA (Clontech) as a template for mouse cyclophilin B and the aforementioned primer sets under the same condition. Since a primer set corresponding to human ALK polynucleotide exon 29 was used to detect the EML4-ALK fusion polynucleotide v1, the standard curve can be obtained using human genomic DNA. The expression amount of the EML4-ALK fusion polynucleotide v1 and the human ALK gene in respective samples was calibrated with the expression amount of the mouse cyclophilin B gene and the human GAPDH gene to obtain the calibrated expression amount."}, "human ALK gene": {"tested_on": "human ALK gene", "experiment": "siRNA inhibition of mRNA expression of ALK gene in U-87MG cells, quantitative PCR", "type": "cell-based", "conditions": "siRNA 20 nM, 72 hours; for Inhibition rate for ALK gene expression (U-87 MG cells): mRNA", "method": "as §2, §3, §4"}, "v1 expressing 3T3 cells": {"tested_on": "v1 expressing 3T3 cells", "experiment": "anchorage independent growth on spheroid plate, v1 expressing 3T3 cells", "type": "cell-based, mouse", "conditions": "siRNA transfected, 3 days; for v1 expressing 3T3 cells growth inhibition rate: spheroid plate", "method": "as §1"}}, "data": [{"substance": "siRNA-1: siRNA, sense strand SEQ ID NO: 111, antisense SEQ ID NO: 112; fusion area of EML4-ALK v1 (sense UGGGAAAGGACCUAAAGTGTA; antisense CACTTTAGGUCCUUUCCCAGG; chemistry not given here)", "values": [{"measurement": "U-87MG cell growth inhibition rate", "setting": "U-87MG cells", "result": "−13", "unit": "%"}, {"measurement": "Inhibition rate for EML4-ALK gene expression (v1 expressing 3T3 cells)", "setting": "[1]", "result": 80, "unit": "%"}, {"measurement": "Inhibition rate for ALK gene expression (U-87 MG cells)", "setting": "human ALK gene", "result": "−12", "unit": "%"}]}, {"substance": "siRNA-2: siRNA, sense strand SEQ ID NO: 113, antisense SEQ ID NO: 114; fusion area of EML4-ALK v1 (sense GGGAAAGGACCUAAAGTGTAC; antisense ACACTTUAGGUCCUUUCCCAG; chemistry not given here)", "values": [{"measurement": "U-87MG cell growth inhibition rate", "setting": "U-87MG cells", "result": 25, "unit": "%"}, {"measurement": "Inhibition rate for EML4-ALK gene expression (v1 expressing 3T3 cells)", "setting": "[1]", "result": 66, "unit": "%"}, {"measurement": "Inhibition rate for ALK gene expression (U-87 MG cells)", "setting": "human ALK gene", "result": 11, "unit": "%"}]}, {"substance": "siRNA-3: siRNA, sense strand SEQ ID NO: 115, antisense SEQ ID NO: 116; fusion area of EML4-ALK v1 (sense GGACCUAAAGUGUACCGCCGG; antisense GGCGGTACACUUUAGGUCCUU; chemistry not given here)", "values": [{"measurement": "U-87MG cell growth inhibition rate", "setting": "U-87MG cells", "result": "−21", "unit": "%"}, {"measurement": "Inhibition rate for EML4-ALK gene expression (v1 expressing 3T3 cells)", "setting": "[1]", "result": 62, "unit": "%"}, {"measurement": "Inhibition rate for ALK gene expression (U-87 MG cells)", "setting": "human ALK gene", "result": 10, "unit": "%"}]}, {"substance": "siRNA-4: siRNA, sense strand SEQ ID NO: 117, antisense SEQ ID NO: 118; fusion area of EML4-ALK v1 (sense CCUAAAGUGUACCGCCGGAAG; antisense TCCGGCGGUACACUUUAGGUC; chemistry not given here)", "values": [{"measurement": "U-87MG cell growth inhibition rate", "setting": "U-87MG cells", "result": "−8", "unit": "%"}, {"measurement": "Inhibition rate for EML4-ALK gene expression (v1 expressing 3T3 cells)", "setting": "[1]", "result": 86, "unit": "%"}, {"measurement": "Inhibition rate for ALK gene expression (U-87 MG cells)", "setting": "human ALK gene", "result": 22, "unit": "%"}]}, {"substance": "siRNA-5: siRNA, sense strand SEQ ID NO: 119, antisense SEQ ID NO: 120; fusion area of EML4-ALK v1 (sense AAAGUGUACCGCCGGAAGCAC; antisense GCTTCCGGCGGUACACUUUAG; chemistry not given here)", "values": [{"measurement": "U-87MG cell growth inhibition rate", "setting": "U-87MG cells", "result": "−13", "unit": "%"}, {"measurement": "Inhibition rate for EML4-ALK gene expression (v1 expressing 3T3 cells)", "setting": "[1]", "result": 76, "unit": "%"}, {"measurement": "Inhibition rate for ALK gene expression (U-87 MG cells)", "setting": "human ALK gene", "result": "−22", "unit": "%"}]}, {"substance": "siRNA-6: siRNA, sense strand SEQ ID NO: 121, antisense SEQ ID NO: 122; fusion area of EML4-ALK v1 (sense AAGUGUACCGCCGGAAGCACC; antisense TGCTTCCGGCGGUACACUUUA; chemistry not given here)", "values": [{"measurement": "v1 expressing 3T3 cells growth inhibition rate", "setting": "v1 expressing 3T3 cells", "result": 97, "unit": "%"}, {"measurement": "U-87MG cell growth inhibition rate", "setting": "U-87MG cells", "result": 16, "unit": "%"}, {"measurement": "Inhibition rate for EML4-ALK gene expression (v1 expressing 3T3 cells)", "setting": "[1]", "result": 69, "unit": "%"}, {"measurement": "Inhibition rate for ALK gene expression (U-87 MG cells)", "setting": "human ALK gene", "result": 15, "unit": "%"}]}, {"substance": "siRNA-7: siRNA, sense strand SEQ ID NO: 123, antisense SEQ ID NO: 124; ALK area of EML4-ALK v1 (sense GGCCUGUAUACCGGATAATGA; antisense ATTATCCGGUAUACAGGCCCA; chemistry not given here)", "values": [{"measurement": "v1 expressing 3T3 cells growth inhibition rate", "setting": "v1 expressing 3T3 cells", "result": 87, "unit": "%"}, {"measurement": "growth of U-87MG cells (in words)", "setting": "U-87MG cells", "result": "did not inhibit the growth of U-87MG cells"}, {"measurement": "U-87MG cell growth inhibition rate", "setting": "U-87MG cells", "result": 15, "unit": "%"}, {"measurement": "Inhibition rate for EML4-ALK gene expression (v1 expressing 3T3 cells)", "setting": "[1]", "result": 67, "unit": "%"}]}, {"substance": "siRNA-8: siRNA, sense strand SEQ ID NO: 125, antisense SEQ ID NO: 126; ALK area of EML4-ALK v1 (sense GGCCUGUAUACCGGAUAAUGA; antisense AUUAUCCGGUAUACAGGCCCA; chemistry not given here)", "values": [{"measurement": "growth of U-87MG cells (in words)", "setting": "U-87MG cells", "result": "did not inhibit the growth of U-87MG cells"}, {"measurement": "U-87MG cell growth inhibition rate", "setting": "U-87MG cells", "result": "−21", "unit": "%"}, {"measurement": "Inhibition rate for EML4-ALK gene expression (v1 expressing 3T3 cells)", "setting": "[1]", "result": 70, "unit": "%"}]}, {"substance": "siRNA-9: negative control siRNA, SEQ ID NO: 127 and 128, base sequence not present in mammalian cells (chain 1 CGGCUGCAAUCGATTGATAGC; chain 2 TATCAAUCGAUUGCAGCCGAA; chemistry not given here)", "values": [{"measurement": "anchorage independent growth of v1 expressing 3T3 cells (in words)", "setting": "v1 expressing 3T3 cells", "result": "did not inhibit the growth"}, {"measurement": "v1 expressing 3T3 cells growth inhibition rate", "setting": "v1 expressing 3T3 cells", "result": "−35", "unit": "%"}, {"measurement": "growth of U-87MG cells (in words)", "setting": "U-87MG cells", "result": "did not inhibit the growth"}, {"measurement": "U-87MG cell growth inhibition rate", "setting": "U-87MG cells", "result": "−16", "unit": "%"}, {"measurement": "expression inhibitory effect on the EML4-ALK fusion polynucleotide (in words)", "setting": "[1]", "result": "did not demonstrate strong expression inhibitory effect"}, {"measurement": "Inhibition rate for EML4-ALK gene expression (v1 expressing 3T3 cells)", "setting": "[1]", "result": 29, "unit": "%"}, {"measurement": "expression inhibitory effect on the human ALK gene (in words)", "setting": "human ALK gene", "result": "did not demonstrate strong expression inhibitory effect"}, {"measurement": "Inhibition rate for ALK gene expression (U-87 MG cells)", "setting": "human ALK gene", "result": "−31", "unit": "%"}]}]}
